System: Vibrio cholerae MCM B-322
Assay: Antibacterial activity, simple disc diffusion (agar diffusion) technique
Description: In addition, standard discs of penicillin (10 units/disc), amphicillin (10 mcg/disc) and streptomycin (10 mcg/disc) were used to compare the sensitivity.
Antibacterial activity was determined using a Gram negative bacterial strain, Vibrio cholerae, in a agar diffusion assay, essentially as described by Chabbert, (1963) and Rinehart et.al.,(1981). […] Following an appropriate incubation interval, microbial growth inhibition was visualized and quantified by measuring the clear zone around each disc (Plate 1.). Comparison of this was made with the standard antibiotics (penicillin, amphicillin, and streptomycin).

Structure (SMILES) | zone of inhibition at 10 µg/disc (Vibrio cholerae, MCMB322) | antibacterial activity against human pathogen Vibrio cholerae (in words) (disc diffusion, 5-30 mcg/disc)
[H]/N=C(/N)N[C@H]1[C@H](O)[C@@H](O)[C@H](O[C@@H]2O[C@@H](C)[C@](O)(C=O)[C@H]2O[C@@H]2O[C@@H](CO)[C@H](O)[C@@H](O)[C@@H]2NC)[C@@H](N/C(N)=N\[H])[C@@H]1O [streptomycin] | 4 to 5 mm | 
CC(C)=CCc1[nH]c2ccccc2c1C=C1NC(=O)C(C)NC1=O (centres unmarked) [chrysogenazine, 3,1′-didehydro-3[2″(3′″,3′″-dimethyl-prop-2-enyl)-3″-indolylmethylene]-6-methylpiperazine-2,5-dione] |  | active

Reference: patent publication US20050143392A1, “Chrysogenazine obtained from fungus Penicillium chrysogenum having antibacterial activity” (Council of Scientific & Industrial Research, priority 2003, published 2005)
